Laboratory results reported in PubChem BioAssay AID1963869 (Molecular Pharmacology Branch, DTP, NCI, 2024).
Calls of active or inactive are those of the source. Rule for the calls: active = viability on the fitted dose curve at most 10% of control; inactive = the rest.

Tested on: KRAS patient-derived spheroids with HUVEC/MSC, viability
Assay: Anticancer human tumor 323965-272-R-J2-PDC patient-derived pancreatic carcinoma cell line growth inhibition [KRAS2]
Settings: for IC50: curve of first compound; for viability, T/C: stronger effect = lower value
Procedure, shortened: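 KRAS-mutant tumor cells were grown as spheroids with HUVEC endothelial cells and human MSCs as stroma. Targeted agents were tested alone and with KRAS pathway inhibitors. Doses started at or near clinical Cmax, or 10 microM, descending half-log.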

[1] = second compound 0.1 µM, first compound 0.0316 µM
[2] = second compound 0.1 µM, first compound 0.1 µM
[3] = second compound 0.1 µM, first compound 0.316 µM
[4] = second compound 0.1 µM, first compound 1 µM
[5] = second compound 0.1 µM, first compound 3.16 µM
[6] = second compound 0.1 µM, first compound 10 µM
[7] = second compound 0.316 µM, first compound 0.0316 µM
[8] = second compound 0.316 µM, first compound 0.1 µM
[9] = second compound 0.316 µM, first compound 0.316 µM
[10] = second compound 0.316 µM, first compound 1 µM
[11] = second compound 0.316 µM, first compound 3.16 µM
[12] = second compound 0.316 µM, first compound 10 µM
[13] = second compound 1 µM, first compound 0.0316 µM
[14] = second compound 1 µM, first compound 0.1 µM
[15] = second compound 1 µM, first compound 0.316 µM
[16] = second compound 1 µM, first compound 1 µM
[17] = second compound 1 µM, first compound 3.16 µM
[18] = second compound 1 µM, first compound 10 µM
[19] = second compound 3.16 µM, first compound 0.0316 µM
[20] = second compound 3.16 µM, first compound 0.1 µM
[21] = second compound 3.16 µM, first compound 0.316 µM
[22] = second compound 3.16 µM, first compound 1 µM
[23] = second compound 3.16 µM, first compound 3.16 µM
[24] = second compound 3.16 µM, first compound 10 µM
[25] = second compound 0.1 µM, first compound 0.01 µM
[26] = second compound 0.316 µM, first compound 0.01 µM
[27] = second compound 1 µM, first compound 0.01 µM
[28] = second compound 3.16 µM, first compound 0.01 µM
[29] = second compound 10 µM, first compound 0.01 µM
[30] = second compound 10 µM, first compound 0.0316 µM
[31] = second compound 10 µM, first compound 0.1 µM
[32] = second compound 10 µM, first compound 0.316 µM
[33] = second compound 10 µM, first compound 1 µM
[34] = second compound 10 µM, first compound 3.16 µM
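Throughout, for IC50: spheroids exposed to agents for 7 days.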
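Throughout, for viability, T/C: spheroids exposed to agents for 7 days; 100% = DMSO vehicle control viability.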

## CC1OCC2(CCN(c3cnc(Sc4ccnc(N)c4Cl)c(N)n3)CC2)C1N (stereo not given) + C=CC(=O)N1CCN(c2nc(OCC3CCCN3C)nc3c2CCN(c2cccc4cccc(C)c24)C3)CC1CC#N
Second compound 0.0316 µM
  IC50: 36.9 nM
Second compound 0.1 µM
  IC50: < 31.6 nM
Second compound 0.316 µM
  IC50: < 31.6 nM
Second compound 1 µM
  IC50: < 31.6 nM
Second compound 3.16 µM
  IC50: < 31.6 nM
Second compound 0.0316 µM, first compound 0.0316 µM
  viability, T/C: 51.4%
Second compound 0.0316 µM, first compound 0.1 µM
  viability, T/C: 39.2%
Second compound 0.0316 µM, first compound 0.316 µM
  viability, T/C: 24.4%
Second compound 0.0316 µM, first compound 1 µM
  viability, T/C: 19.3%
Second compound 0.0316 µM, first compound 3.16 µM
  viability, T/C: 12.3%
Second compound 0.0316 µM, first compound 10 µM
  viability, T/C: 9.85%
[1]
  viability, T/C: 38.4%
[2]
  viability, T/C: 31.9%
[3]
  viability, T/C: 21.5%
[4]
  viability, T/C: 15.1%
[5]
  viability, T/C: 10.7%
[6]
  viability, T/C: 10.8%
[7]
  viability, T/C: 41%
[8]
  viability, T/C: 30.5%
[9]
  viability, T/C: 18.4%
[10]
  viability, T/C: 17%
[11]
  viability, T/C: 10.8%
[12]
  viability, T/C: 9.7%
[13]
  viability, T/C: 35.2%
[14]
  viability, T/C: 28.9%
[15]
  viability, T/C: 15.7%
[16]
  viability, T/C: 13.5%
[17]
  viability, T/C: 11.6%
[18]
  viability, T/C: 10%
[19]
  viability, T/C: 1.93%
[20]
  viability, T/C: 1.12%
[21]
  viability, T/C: 0.53%
[22]
  viability, T/C: 0.65%
[23]
  viability, T/C: 1.07%
[24]
  viability, T/C: 1.33%

## CC(=O)OC12COC1CC(O)C1(C)C(=O)C(O)C3=C(C)C(OC(=O)C(O)C(NC(=O)OC(C)(C)C)c4ccccc4)CC(O)(C(OC(=O)c4ccccc4)C21)C3(C)C (stereo not given) + CC1OCC2(CCN(c3cnc(Sc4ccnc(N)c4Cl)c(N)n3)CC2)C1N
Second compound 0.1 µM
  IC50: < 10 nM
Second compound 0.316 µM
  IC50: < 10 nM
Second compound 1 µM
  IC50: < 10 nM
Second compound 3.16 µM
  IC50: < 10 nM
Second compound 10 µM
  IC50: < 10 nM
[25]
  viability, T/C: 26.3%
[1]
  viability, T/C: 25.6%
[2]
  viability, T/C: 25.5%
[3]
  viability, T/C: 21.7%
[4]
  viability, T/C: 27%
[5]
  viability, T/C: 27.7%
[26]
  viability, T/C: 23.8%
[7]
  viability, T/C: 23.9%
[8]
  viability, T/C: 21.3%
[9]
  viability, T/C: 19.8%
[10]
  viability, T/C: 23%
[11]
  viability, T/C: 23.5%
[27]
  viability, T/C: 34.2%
[13]
  viability, T/C: 33.5%
[14]
  viability, T/C: 31.2%
[15]
  viability, T/C: 32.4%
[16]
  viability, T/C: 37.2%
[17]
  viability, T/C: 39.7%
[28]
  viability, T/C: 16.9%
[19]
  viability, T/C: 16.3%
[20]
  viability, T/C: 14.8%
[21]
  viability, T/C: 14.1%
[22]
  viability, T/C: 15.2%
[23]
  viability, T/C: 17.2%
[29]
  viability, T/C: 18.1%
[30]
  viability, T/C: 16.5%
[31]
  viability, T/C: 15.9%
[32]
  viability, T/C: 12.3%
[33]
  viability, T/C: 13.9%
[34]
  viability, T/C: 16.7%

## CN(C)C/C=C/C(=O)Nc1cc2c(Nc3ccc(F)c(Cl)c3)ncnc2cc1O[C@H]1CCOC1 + CC1OCC2(CCN(c3cnc(Sc4ccnc(N)c4Cl)c(N)n3)CC2)C1N
Second compound 0.1 µM
  IC50: > 100 nM
Second compound 0.316 µM
  IC50: 0.979 nM
Second compound 1 µM
  IC50: > 100 nM
Second compound 3.16 µM
  IC50: < 0.316 nM
Second compound 10 µM
  IC50: > 100 nM
Second compound 0.1 µM, first compound 0.000316 µM
  viability, T/C: 68.4%
Second compound 0.1 µM, first compound 0.001 µM
  viability, T/C: 75.9%
Second compound 0.1 µM, first compound 0.00316 µM
  viability, T/C: 65.4%
[25]
  viability, T/C: 57.8%
[1]
  viability, T/C: 57.7%
[2]
  viability, T/C: 58.6%
Second compound 0.316 µM, first compound 0.000316 µM
  viability, T/C: 63%
Second compound 0.316 µM, first compound 0.001 µM
  viability, T/C: 49%
Second compound 0.316 µM, first compound 0.00316 µM
  viability, T/C: 48.1%
[26]
  viability, T/C: 38.1%
[7]
  viability, T/C: 41.1%
[8]
  viability, T/C: 44.6%
Second compound 1 µM, first compound 0.000316 µM
  viability, T/C: 96.4%
Second compound 1 µM, first compound 0.001 µM
  viability, T/C: 95.8%
Second compound 1 µM, first compound 0.00316 µM
  viability, T/C: 78.5%
[27]
  viability, T/C: 75.2%
[13]
  viability, T/C: 64.6%
[14]
  viability, T/C: 63.3%
Second compound 3.16 µM, first compound 0.000316 µM
  viability, T/C: 39%
Second compound 3.16 µM, first compound 0.001 µM
  viability, T/C: 33%
Second compound 3.16 µM, first compound 0.00316 µM
  viability, T/C: 27.4%
[28]
  viability, T/C: 27.7%
[19]
  viability, T/C: 28.6%
[20]
  viability, T/C: 34.7%
Second compound 10 µM, first compound 0.000316 µM
  viability, T/C: 107%
Second compound 10 µM, first compound 0.001 µM
  viability, T/C: 96.9%
Second compound 10 µM, first compound 0.00316 µM
  viability, T/C: 70.5%
[29]
  viability, T/C: 56%
[30]
  viability, T/C: 59.8%
[31]
  viability, T/C: 55.9%

## O=C(c1cc(Cc2n[nH]c(=O)c3ccccc23)ccc1F)N1CCN(C(=O)C2CC2)CC1 + CC1OCC2(CCN(c3cnc(Sc4ccnc(N)c4Cl)c(N)n3)CC2)C1N
Second compound 0.1 µM
  IC50: > 10000 nM
Second compound 0.316 µM
  IC50: > 10000 nM
Second compound 1 µM
  IC50: 9440 nM
Second compound 3.16 µM
  IC50: < 31.6 nM
Second compound 10 µM
  IC50: < 31.6 nM
[1]
  viability, T/C: 73.2%
[2]
  viability, T/C: 73.4%
[3]
  viability, T/C: 82.2%
[4]
  viability, T/C: 80.1%
[5]
  viability, T/C: 82.3%
[6]
  viability, T/C: 53.7%
[7]
  viability, T/C: 60.9%
[8]
  viability, T/C: 67.9%
[9]
  viability, T/C: 65.8%
[10]
  viability, T/C: 67.3%
[11]
  viability, T/C: 61.3%
[12]
  viability, T/C: 40.1%
[13]
  viability, T/C: 101%
[14]
  viability, T/C: 106%
[15]
  viability, T/C: 102%
[16]
  viability, T/C: 101%
[17]
  viability, T/C: 88.5%
[18]
  viability, T/C: 47.8%
[19]
  viability, T/C: 36.6%
[20]
  viability, T/C: 40.9%
[21]
  viability, T/C: 41.4%
[22]
  viability, T/C: 34.8%
[23]
  viability, T/C: 36.8%
[24]
  viability, T/C: 24.9%
[30]
  viability, T/C: 33.1%
[31]
  viability, T/C: 33.1%
[32]
  outcome: inactive
[33]
  viability, T/C: 28%
[34]
  viability, T/C: 23.7%
Second compound 10 µM, first compound 10 µM
  viability, T/C: 19%
